The source of these data is US20160228506A1, “Compositions and Formulations for Prevention and Reduction of Tumorigenesis, Cancer Cell Proliferation and Invasion, and Methods of Production and Use Thereof in Cancer Treatment” (PRONUTRIA, INC., priority 2013, published 2016).

In general, Kd refers to the constant that tells how readily two partners part at equilibrium.

A short description of data set [1]: Thermostability, temperature of aggregation (ProteoStat Thermal Shift). The data set is classed as physicochemical. As to conditions: Table E31D; heated 25° C. to 95° C. The procedure: The thermostability of proteins in a buffer cocktail of Citric Acid and Dibasic Sodium Phosphate over a pH range of 2.8 to 7.1 (preparation described above in Table E31B) was determined using the ProteoStat® Thermal Shift Stability Kit (Enzo Life Sciences) according to the manufacturer's standard protocol. Briefly, protein solutions (˜10 mg/ml) containing 1× ProteoStat TS Detection Reagent were heated from 25° C. to 95° C. at a rate of 0.5° C. per 30 sec using a real-time PCR (rtPCR) thermocycler (BioRad) equipped with a plate reader (SynergyMx, Biotek) while monitoring the fluorescence with a Texas Red filter.

Data set [2] in a line: Intact half-life during simulated gastric fluid (SGF) digestion. As to conditions: SGF pH 1.5, pepsin:polypeptide 1:20 w/w, 37° C.; intact protein.
Protocol: In this experiment the nutritive polypeptide was exposed to a series of proteases that are active in the stomach (pepsin) and intestine (trypsin and chymotrypsin), and the presence of intact protein was measured over time. Specifically, the nutritive polypeptide was first treated at a concentration of 2 g/L with simulated gastric fluid (SGF) (0.03 M NaCl, titrated with HCl to pH 1.5 with a final pepsin:polypeptide ratio of 1:20 w/w) at 37° C. Time points were sampled from the reaction and quenched by addition of 0.2 M Na2CO3. […] Time points were sampled from the reaction and quenched by addition of Trypsin/Chymotrypsin Inhibitor (Sigma) solution until 240 min.
Time point samples were analyzed for intact protein by chip electrophoresis, polyacrylamide gel electrophoresis, or western blot. For chip electrophoresis (Labchip GX II), samples were analyzed using a HT Low MW Protein Express LabChip® Kit (following the manufacturer's protocol). A protein ladder was loaded every 12 samples for molecular weight determination (kDa) and quantification. For polyacrylamide gel electrophoresis, samples (1 μg) were separated on a NuPAGE® Novex® Bis-Tris Precast gel (Life Technologies) according to the manufacturer's protocol. The gel was stained using SimplyBlue™ SafeStain (Invitrogen) and imaged using a Chemidoc XRS+ (BioRad) or transferred onto nitrocellulose membranes using the iBlot® Dry Blotting System (Life Technologies) and iBlot® Western Detection Kit (Life Technologies) according to the manufacturer's protocol. Proteins were detected by blotting with Anti-His [C-term]-HRP antibody diluted 3:5000 in Blok™-PO Blocking Buffer using the SNAP I.d.® Protein Detection System (Millipore) according to the manufacturer's protocol. Blots were treated with Luminata Classico Western HRP Substrate (Millipore) according to the manufacturer's protocol and imaged using chemiluminescent detection on the Molecular Imager® Gel Doc™ XR+ System (Bio-Rad). Quantification of intact protein was determined by densitometry using ImageLab (BioRad). For all analysis methods the relative concentration of the polypeptide at each time point (if detected) was plotted overtime and fit to an exponential curve to calculate the intact half-life.
Specifically, the t=0 (enzyme-free control) and t=2 min samples from the SGF digest were analyzed for intact protein as described by chip electrophoresis, SDS-PAGE, western blot, and/or LC-MS/MS. Relative quantities of polypeptides at each time point were determined and the percentage of intact protein remaining at t=2 was determined. Intact half-life values determined using this method are reported as greater or less than 2 min to indicate more or less than 50% of the protein remained intact at t=2 min, respectively.
In data set [3] the test system is ribosomal protein S6 (rps6). Nature of the data set: AlphaScreen SureFire rps6 phosphorylation in primary rat skeletal muscle cells. Particulars: primary RSkMC, different Leucine concentrations. Format: cell-based.
Protocol: Primary Rat Skeletal Muscle Cell (RSKMC) culture. RSKMC were isolated using protocol described herein and cryopreserved in liquid nitrogen. The cells were also maintained in RSKMC medium (Cell Applications) in T75 tissue flask in a 37° C., 5% CO2 tissue culture incubator (Model 3110, Thermo Fisher Scientific). The cells were split every three day when they reached ˜90% confluency. RSKMC cells were cultured in RSKMC medium in T75 tissue flask to 100% confluency. The culture medium was aspirated from the culture flask and rinsed once with 10 ml of DPBS, and then 1.5 ml of 0.25% trypsin/EDTA was added to the cells. After the cells were detached from the flask, 10 ml of culture medium were added. The medium was pipetted up and down with a 10 ml pipet to detach the cells from the flask. The cells were then seeded into clear bottom 96-well tissue culture plates at a density of 50,000 cells per well. Following overnight culture in a 37° C., 5% CO2 incubator, the cells were starved over a period of 4 hours with starvation DME/F12 medium without FBS and leucine in a 37° C., 5% CO2 tissue culture incubator, then starved for another hour incubation with Hank's Buffered Salt Solution (HBSS). The cells were stimulated with different concentrations of leucine in starvation medium for 15 and 30 minutes. […]
Data set [4] deals with healthy subjects. As to conditions: oral supplementation, vs control; cited from earlier work.
Data set [5] concerns burn injury. As to conditions: 0.35 g/kg supplementation, cited from earlier work.
For data set [6], the system named is serotonin (5-HT) synthesis. As to conditions: oral intake of free Tryptophan; cited from earlier work.
Data set [7] is described as follows: SGF digest of 168 nutritive polypeptide library, intact protein by LC-MS/MS. Format: in vitro ADME. As to conditions: 168 nutritive polypeptide library SGF digest, LC-MS/MS spectral counts. As for the experimental part:
The in vitro intact half-life of multiple polypeptides in a complex mixture was determined using the simulated gastric in vitro digestion described above. Briefly, the 168 nutritive polypeptide library was generated as described herein by cloning, transforming, and expressing a gene library encoding 168 proteins as a single mixture. The recombinantly expressed proteins were purified from host cell proteins by IMAC purification as described herein.
The 168 Protein Library was treated with SGF as described above and the t=0 and t=10 min samples were analyzed for intact protein by LC-MS/MS. To begin, 10 μg of sample was loaded onto a 10% SDS-PAGE gel (Invitrogen) and run approximately 5 cm into the gel. The gel was excised into ten fractions from 100 kD to the dye front and the gel slices were processed by washing with 25 mM ammonium bicarbonate, followed by acetonitrile. Gel fractions were then reduced with 10 mM dithiothreitol at 60° C., followed by alkylation with 50 mM iodoacetamide at room temperature. […] The samples were then analyzed by nano LC/MS/MS using an EasynLC 1000 HPLC system interfaced to a ThermoFisher Q Exactive. […] A full list of detected proteins and their spectral counts (SpC) was generated and reported as a function of each collected gel fraction. […]

The target of data set [8] is T1, Human transglutaminase (Homo sapiens, UniProt Q08188).
T1 sequence (Q08188 1-693): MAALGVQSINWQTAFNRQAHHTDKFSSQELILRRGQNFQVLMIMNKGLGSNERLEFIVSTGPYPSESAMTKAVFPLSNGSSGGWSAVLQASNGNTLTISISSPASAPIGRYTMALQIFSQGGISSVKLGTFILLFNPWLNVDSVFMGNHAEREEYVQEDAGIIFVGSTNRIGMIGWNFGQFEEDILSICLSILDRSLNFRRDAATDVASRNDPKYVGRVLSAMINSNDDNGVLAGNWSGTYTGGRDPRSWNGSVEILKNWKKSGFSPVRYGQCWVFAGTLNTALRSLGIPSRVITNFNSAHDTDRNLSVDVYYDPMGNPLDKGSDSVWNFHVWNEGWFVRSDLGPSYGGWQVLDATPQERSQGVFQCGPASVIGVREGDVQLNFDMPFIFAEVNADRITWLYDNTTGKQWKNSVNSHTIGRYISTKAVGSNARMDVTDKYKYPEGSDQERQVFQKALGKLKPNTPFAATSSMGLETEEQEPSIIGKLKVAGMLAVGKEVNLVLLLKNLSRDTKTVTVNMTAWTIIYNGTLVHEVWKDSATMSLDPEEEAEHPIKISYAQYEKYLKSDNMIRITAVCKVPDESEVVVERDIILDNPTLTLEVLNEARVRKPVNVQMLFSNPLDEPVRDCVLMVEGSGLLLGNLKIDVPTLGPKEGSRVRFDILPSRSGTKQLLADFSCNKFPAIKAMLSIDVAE
Particulars: read-out: Kd for calcium; cited from earlier work.

Data set [9] deals with male Zucker fatty rats. Put plainly: OGTT in Zucker fatty rats: SEQID-00105, alogliptin and combination, blood glucose. Format: in vivo, rat. As to conditions: OGTT glucose 2 g/kg. As for the experimental part: In another experiment, an OGTT was performed in 24, fasted, male Zucker fatty rats with indwelling jugular vein catheters (JVC) to assess the acute effects of nutritive protein dosing on glycemic control as well as insulin and GLP-1 levels. The capacity of SEQID-00105 to improve glucose control was tested by comparing the blood glucose excursion of SEQID-00105 to alogliptin to SEQID-00105+alogliptin to vehicle in the context of an oral glucose tolerance test. All rodents were approximately 10-11 weeks old, weighed average of approximately 430 g and acclimated for 4-5 days prior to testing. Prior to treatment, all rats were fasted overnight for fourteen hours. […] N=6 rats per treatment group. The error bars shown are the standard errors of the mean. Each group was compared post hoc on GraphPad Prism 6, two-way ANOVA, Dunnett's multiple comparisons test first comparing within each group to the fasting glucose concentration, followed by a comparison of each time point to vehicle. […] The integrated area under curve (AUC) was calculated on Microsoft Excel using the Linear-Log Trapezoidal Method and two-way ANOVA and Dunnett's multiple comparisons tests was conducted on GraphPad Prism 6.03.

Take “SEQID-00237: nutritive polypeptide (EEDKVNTLTKAKTKLEQQVDDLEGSLEQEKKLRMDLERAKRKLEGDLKLA; listed as Bos taurus)”: the “Tagg (pH 7.1)” value in data set [1] stood at 45. For the same compound, the “SGF Half-life (t½)” value in [2] is 36 s. In the case of “SEQID-00143: nutritive polypeptide (LYLEEVSKNLVEINPLKLEVKAKPWFVYTPMHGVGFDIFSTIVKKTLCLVEGK; listed as Saccharomyces cerevisiae)”, the “SGF Half-life (t½)” value in data set [2] is 18 s. Turning to “SEQID-00218: nutritive polypeptide (GTIENLEEAKKKLLKDVEVLSQRLEEKALAYDKLEKTKTRLQQELDDLLVDLDHQ; listed as Bos taurus)”, the “SGF Half-life (t½)” value in data set [2] is 360 s. Turning to `CC(C)C[C@H](N)C(=O)O` [leucine], the “phosphorylation of rps6” value in data set [3] is “stimulates phorphorylation of rps6 in primary RSkMC in a dose-dependent manner”. As to `N=C(N)NCCC[C@H](N)C(=O)O` [arginine, Arginine], in data set [4], the “increase in collagen deposition at wound sites” value is recorded as 2.4 ×.

As to `NC(=O)CC[C@H](N)C(=O)O` [Glutamine], the “reduction in hospital stay” value in [5] (12-day burn injury study) was 6 days. For the same compound, the “decrease in Lactulose/mannitol ratio” value in data set [5] (after 3 days, vs 5.5× decrease) was 8.8 ×.

In the case of `N[C@@H](Cc1c[nH]c2ccccc12)C(=O)O` [Tryptophan], the “increase of 5-HT production” value in data set [6] was 2 fold. Consider “SEQID-00212: nutritive polypeptide (LEEAKKKLLKDVEVLSQRLEEKALAYDKLEKTKTRLQQELDDLLVDLDHQ; listed as Bos taurus)”, for which the “SGF Half-life (t½)” value in data set [2] is 18 s. In the case of “SEQID-00615: protein of the 168 nutritive polypeptide library (MAGIIHKIEETLHMGGGRKEEEEKRKGEGQGHGGYKGEGQGHGGYKGEGQG; listed as Vitis vinifera)”, in [7], the “% Intact Protein at 10 min” value was 85.7%. For the compound “SEQID-00215: nutritive polypeptide (KKLLKDVEVLSQRLEEKALAYDKLEKTKTRLQQELDDLLVDLDHQRQIVSNLEKK; listed as Bos taurus)”, in data set [2], the “SGF Half-life (t½)” value was 120 s. Consider `[Ca+2]` [calcium, calcium (Ca2+)], for which the Kd in [8] is 300 to 3000 nM.

Consider `Cn1c(=O)cc(N2CCC[C@@H](N)C2)n(Cc2ccccc2C#N)c1=O` [Alogliptin], for which the figures for the “blood glucose compared to vehicle” value in data set [9] (at 30 minutes following glucose challenge) and in [9] (at 60 minutes following glucose challenge) were “significantly lower blood glucose than vehicle” and “significantly lower than vehicle”, respectively. Besides, the “glucose AUC compared to vehicle” value is reported as “significantly less than vehicle” in data set [9] (between time 0 and 120 minutes, P=0.0051); “significantly less than vehicle” in data set [9] (between time 0 and 240 minutes, P=0.0054).
